Reference: patent publication US20190369122A1, “METABOLIC DISORDERS” (priority 2016, published 2019)

Tests used:
[1] = tested on: HEK293 cells; test: siRNA knock-down in HEK293 cells, ImP-induced signaling; type: cell-based, human; details: HEK293 transfected with control or p38δ/p38γ siRNA
Description: (§1) HEK293 cells (ATCC CRL-1573) were grown and maintained in high-glucose (4.5 g/l glucose) DMEM with 10% (v/v) FBS. All HEK293 cell experiments were performed in serum-starved and amino acid-deprived conditions. 24 h after transfection (with plasmids or siRNA as indicated), HEK293 cells cultured in poly-L-lysine-coated 60 mm dishes were rinsed twice with DMEM without FBS and incubated in serum-free DMEM for 18 h. HEK293 cells were then washed once with EBSS and incubated in EBSS for 1 h.
FLAG mTOR and HA Raptor were kindly provided by Dr Sung Ho Ryu (Pohang University of Science and Technology, Pohang, South Korea). Myc-Rag GTPases constructs were gifts from Dr Do-Hyung Kim (University of Minnesota, Minn., USA). AIIStars negative control siRNA, p38δ siRNA1 (Hs_MAPK13_5 targeting […] (SEQ ID NO: 15)), p38δ siRNA2 (Hs_MAPK13_6 targeting […] (SEQ ID NO: 16)), p38γ siRNA1 (Hs_MAPK12_5 targeting […] (SEQ ID NO: 17)), p38γ siRNA2 (Hs_MAPK12_8 targeting […] (SEQ ID NO: 18)), p38α siRNA (Hs_MAPK14_5 targeting […] (SEQ ID NO: 21)), p38β siRNA (Hs_MAPK11_6 targeting […] (SEQ ID NO: 22)), S6K1 siRNA (Hs_RPS6KB1_5 targeting […] (SEQ ID NO: 23)) and Raptor siRNA (Hs_RPTOR_1 targeting […] (SEQ ID NO: 24)) (Qiagen, Valencia, Calif.) were transfected into HEK293 cells using Lipofectamin 2000 according to the manufacturer's instructions.

[2] = tested on: HEK293 cells; test: Signaling in HEK293 cells (immunoblot); type: cell-based, human
Description: (§2) Snap-frozen liver and harvested cells were lysed in buffer containing 50 mM Tris-HCl (pH 7.4), 150 mM NaCl, 1 mM EDTA, 1 mM Na3VO4, 20 mM NaF, 10 mM glycerophosphate, 1 mM PMSF, 10% glycerol, 1% Triton X-100 and protease inhibitor cocktail. For immunoprecipitation, the cell lysates were obtained in 0.3% CHAPS-containing lysis buffer, sonicated and centrifuged at 20,000 g for 15 min at 4° C., and the supernatant was incubated with 20 μl of anti-FLAG beads (Sigma) at 4° C. for 4 h under gentle agitation.
as §1, with “All HEK293 cell experiments were performed in serum-starved and amino acid-deprived conditions.” left out

[3] = tested on: insulin signaling components; test: Immunoblot of liver lysates from GF mice; type: in vivo, mouse; details: 3-day treatment
Description: (§3) An intraperitoneal glucose tolerance test (using 1 g glucose per kg body weight) was then performed after a 4 h fast. Blood glucose levels were measured from tail blood using HemoCue201+analyzer (HemoCue, Angelholm, Sweden). Liver and plasma samples were collected after a 4 h fast. Mice were under isoflurane anesthesia and killed by cervical dislocation. Fresh liver was taken and snap-frozen in liquid nitrogen and stored at −80° C. until protein extraction.
as §2

[4] = Plasma levels after intraperitoneal injection in CONVR mice; type: in vivo, mouse; details: 100 μg i.p. twice per day for 3 days
Description: as §3
(§4) The samples were then reconstituted with 5% HCl in n-butanol at 70° C. for 1 h, allowing n-butyl ester to be formed. […] Samples (5 μl) were injected onto a C18 BEH column (2.1×100 mm with 1.7 μm particles; Waters, Milford, Mass.) using a gradient consisting of water with 0.1% formic acid (A-phase) and acetonitrile with 0.1% formic acid (B-phase). Mass spectrometric analysis was performed using an Infinity 1290 quaternary UPLC pump (Agilent, Santa Clara, Calif.) coupled to a QTRAP 5500 (ABSciex, Concord, Canada). […] For the internal standards, the transitions 206/81 and 204/93 were used.

[5] = Circulating levels after intraperitoneal injection in GF mice; type: in vivo, mouse; details: 500 μg intraperitoneally twice per day for 3 days
Description: as §3, §4

[6] = tested on: mTORC1; test: mTOR modification in mTORC1 (Raptor immunoprecipitation), HEK293; type: cell-based, human
Description: as §2

[7] = tested on: primary hepatocytes; test: Insulin signaling in primary hepatocytes (immunoblot); type: cell-based, mouse
Description: as §2
Primary hepatocytes were isolated from C57BL/6J mice by digesting liver with perfusion of collagenase type IV as described previously. After perfusion, 16×10^5 cells were plated on collagen-coated 60 mm dishes in Dulbecco's modified Eagle's medium (DMEM)/F12 supplemented with fetal bovine serum (FBS), penicillin/streptomycin and 100 nM dexamethasone. After 4 h, the medium was changed to DMEM/F12 containing penicillin/streptomycin.

[8] = tested on: mTORC1-Rag heterodimer complex-p62; test: Immunoprecipitation of FLAG mTOR: p62/Rag GTPases/mTORC1 complex formation; type: cell-based, human; details: HEK293; 100 μM, absence of amino acids, 1 h
Description: as §2, §1

O=C(O)CCc1cnc[nH]1 [imidazole propionate]
DEPTOR level [1]: not affected
S6K1 phosphorylation ([2]; HEK293, 100 μM for 1 h): induced
basal activation of Akt ([2]; HEK293, 8 h pretreatment): increased
responsiveness of Akt S473 to insulin ([2]; HEK293, 8 h pretreatment): reduced
lowest concentration with p62 phosphorylation activation ([2]; HEK293, absence of amino acids): 10 nM
p62 phosphorylation ([2]; HEK293, absence of amino acids, 1 and 2 h): concentration- and time-dependent increase
Akt phosphorylation ([2]; HEK293, compared with amino acids): induced
time to mTORC1 activation ([2]; absence of amino acids): ≥ 30 min
IRS1 S636/S639 phosphorylation ([2]; amino acid-deprived HEK293, 2 h): induced
IRS1 levels ([2]; amino acid-deprived HEK293, 8 h): dramatically reduced
IRS1 protein levels ([2]; amino acid-deprived cells, up to 2 h): not reduced
time to S6K1 phosphorylation ([2]; presence of amino acids): ≤ 30 min
Akt phosphorylation, either S473 or T308, in liver [3]: no reduction
S6K1 phosphorylation in the liver [3]: increased
mTORC1 S2481 autophosphorylation in the liver [3]: without affecting
hepatic levels of IRS1 and IRS2 ([3]; 500 μg twice per day): reduced
hepatic levels of the insulin receptor (IR) ([3]; 500 μg twice per day): did not affect
effect on urocanate levels [4]: without affecting
increase of circulating concentrations of imidazole propionate [4]: around 4 fold
circulating concentrations of imidazole propionate [5]: around 13 nM
effect on urocanate levels [5]: without affecting
modulation of mTORC1 ([6]; HEK293, 2 h incubation): specifically modulated
mTOR S2448 phosphorylation in mTORC1 ([6]; Raptor immunoprecipitation): strongly induced
mTOR S2481 phosphorylation in mTORC1 ([6]; Raptor immunoprecipitation): not
IRS protein levels ([7]; 100 μM for 8 h): did not affect
insulin-induced IRS1 Y612 phosphorylation ([7]; 100 μM for 8 h, insulin 5 nM): blunted
IRS protein levels ([7]; 100 μM for 20 h): reduced
basal Akt phosphorylation at both S473 and T308 ([7]; 8 h): induced
insulin-induced Akt S473 phosphorylation ([7]; 8 h, insulin 5 nM): reduced
insulin-induced Akt T308 phosphorylation ([7]; 8 h, insulin 5 nM): not
IRS1 level ([7]; 14 h): dramatic reduction
basal Akt phosphorylation at S473 and T308 ([7]; 14 h): increase
insulin-induced Akt S473 phosphorylation ([7]; 14 h): lower
insulin-induced Akt T308 phosphorylation ([7]; 14 h, vs vehicle): higher
S6K1 phosphorylation ([7]; ImP 100 μM): increased
p62 phosphorylation ([7]; ImP 100 μM for 24 h): induced
formation of the mTORC1-Rag heterodimer complex-p62 [8]: induced
